Measured values reported in patent US10118943B2, “Compounds and methods for inhibiting cell death” (Ramot at Tel-Aviv University Ltd., priority 2012, dated 2018).
“Also recorded” adds a separate entry of the source.

Assays:
[1] = system: PC12 cells; experiment: PC12 cell survival assay, zinc toxicity, MTS (Example 1); conditions: 400 μM zinc, 4 hrs, peptide 10^−9M
Experimental: PC12 cells (Pheochromocytoma cells) (ATCC, Bethesda, Md., USA) were seeded at 3×10^4 cells/cm^2 on poly-L-Lysine coated plastic tissue culture dishes (Corning, Lowell, Mass., USA) to form an adherent monolayer. Cells were maintained in Dulbecco's modified Eagle's medium (DMEM) supplemented with 10% horse serum (HS), 5% fetal calf serum (FCS), 2 mM glutamine, 100 U/ml penicillin and […] streptomycin (Biological Industries, Beit Haemek, Israel). PC12 differentiation was induced by nerve growth factor (NGF, Sigma) at concentrations of 50 ng/ml by replacing half of the medium every other day until the cells acquired a differentiated morphology. Differentiated cells were defined as bearing two or more neurites with lengths equal to or more than twice the diameter of the cell body (P. Lamoureux et al., The Journal of cell biology 110, 71 (January, 1990)). The cells were incubated in 5% CO2 in a humidified incubator at 37° C. The cells were sub-cultured every 5 days at a 4:1 split ratio by pipetting. The medium was changed every 2 or 3 days after adhesion.
Transfections were performed using Lipofectamine RNAiMAX (Invitrogen). Transfection was carried out according to manufacturer's protocol. For rat MAPRE3 knockdown, PC12 cells or neurons were plated in growth medium without antibiotics at concentration of 10^4 cells/0.32 cm^2 such that they will be 30-50% confluent at the time of transfection. To obtain the highest transfection efficiency and low non-specific effects, siRNA transfection was performed in the following optimized conditions: 50 nM for neurons and 25 nM PC12 of each siRNA construct with 0.2 μl Lipofectamine RNAiMAX (Invitrogen) was added per well of the 96-well plate and scaled up for different 24 or 6-well plates, according to the manufacturer's instructions. The medium was changed one day after transfection. 48 and 72 hours later, cells were harvested to assay for gene knockdown at the RNA and protein levels.
The cells were incubated for 4 hrs at 37° C. 5% CO2. Survival was measured using the MTS assay.
Metabolic activity of cells was measured by the CellTiter 96® Aqueous Non-Radioactive Cell Proliferation kit in accordance with the manufacturer's instructions (Promega). The assay uses a colorimetric method for determining the number of viable cells employing a tetrazolium compound [3-(4,5-dimethylthiazol-2-yl)-5-(3-carboxymethoxyphenyl)-2-(4-sulfophenyl)-2H-tetrazolium, MTS] and an electron-coupling reagent, phenazine methosulfate (PMS). MTS is bio-reduced by cells into a formazan product that is detected at 490 nm. The conversion of MTS into the formazan form is accomplished by dehydrogenase enzymes found in metabolically active cells. Thus, the quantity of formazan product as measured by the amount of 490 nm absorbance is directly proportional to the number of living cells in culture (A. H. Cory, T. C. Owen, J. A. Barltrop, J. G. Cory, Cancer Commun 3, 207 (July, 1991)).

[2] = system: primary cortical neurons; experiment: PSD-95 density in primary cortical neuron culture; type: cell-based, rat; conditions: neurons treated for 2 hrs
Experimental: Methods: 1. Primary cultures of neurons were prepared as follows. Newborn rats were sacrificed on postnatal day 1. Cerebral cortex tissue was then dissected and dissociated individually from each pup with the Papain Dissociation System (PDS; Worthington Biochemical Corporation) according to the manufacturer's instructions. 2. Cells were fixed with ice cold methanol, blocked with 2% bovine serum albumin (BSA) and 5% normal goat serum in Tris buffered saline containing tween 20 (TBS-T; 20 mM Tris pH 7.5, 136.8 mM NaCl, and 0.05% v/v Tween 20), and incubated with primary antibody followed by the appropriate secondary antibody. 3. Primary antibodies that were used include: monoclonal anti PSD-95 (ab-2723, Abcam), monoclonal anti Tyr-α-tubulin antibody (YL1/2) (VMA1864, Abcys, Paris, France), polyclonal anti Glu-α-tubulin antibody (L4) (AbC0101, Abcys, Paris, France), DyLight 488-labeled secondary goat anti-mouse IgG, DyLight 633-labeled secondary goat anti-rabbit IgG (KPL, Gaithersburg, Md., USA), Cy3-conjugated secondary goat anti-Rat IgG, (Jackson ImmunoResearch). 4. Images were collected with a Leica SP5 confocal laser scanning microscope (Mannheim, Germany) with 63× oil immersion optics, laser lines at 488, 561, 633 nm. Identical confocal laser scanning microscopy (CLSM) parameters (e.g., scanning line, laser light, gain, and offset etc.) were used for control and NAP treated cells.
For instance, a PSD-95 expression assay using primary cortical neuron cultures established from suitable animals may be performed to confirm a compound's activity in promoting cell plasticity. More specifically, primary cultures of neurons are prepared by first taking cerebral cortex tissue from newborn rats on postnatal day 1. The cerebral cortex tissue is then dissected and dissociated individually from each animal. Cells are fixed with ice cold methanol, blocked (e.g., with bovine serum albumin (BSA) and normal goat serum), and incubated with primary antibody (e.g., monoclonal antibody against PSD-95), optionally followed by the appropriate secondary antibody for imaging purposes. Images of primary neuronal cultures are taken and compared between cultures with or without being exposed to a test compound. An increased PSD-95 expression is indicative of the test compound being capable of promoting or protecting cell plasticity, especially neuronal plasticity.
Cerebral cortex tissue from newborn rats was dissected and dissociated individually from each pup with the Papain Dissociation System (PDS), (Worthington Biochemical Corporation) according to the manufacturer's instructions. Cortical neurons were maintained in Neurobasal medium (NB), (Gibco) supplemented with NeuroCult B27-SM1 ([…]), 1% Glutamax (Gibco), and grown on poly-D-lysine-coated cell culture glass cover slips.
Images were collected with a Leica SP5 confocal laser scanning microscope (Mannheim, Germany) with 63× oil immersion optics, laser lines at 488, 561, 633 nm or with LSM 510 META (Zeiss, Jena, Germany) confocal laser scanning microscope with 63× oil immersion optics, laser lines at 488, 568, 633 nm. When comparing fluorescence intensities, identical CLSM parameters (e.g., scanning line, laser light, gain, and offset etc.) were used. All of the fluorescent signals acquired were above the autofluorescent background as measured from a control slide stained with secondary antibody without a primary antibody. To compare the relative levels of protein expression, the average integrated density (AID) image analysis procedure was used for cell immunostains. In brief, integrated density is defined by the sum of the values of the pixels in the selected region of interest (ROI). This is equivalent to the product of Area and Mean Gray Value. AID for the positive stained area was determined by measuring the fluorescent intensity of the ROI, which is above the positive cut-off intensity. […]

[3] = molecular target: T1, full-length human EB3 recombinant protein (Homo sapiens, UniProt Q9UPY8); experiment: Sulfolink coupling gel-NAP affinity chromatography with recombinant EB3, western analysis; type: binding; conditions: 2 mg soluble peptide incubated with recombinant EB3 and column beads
T1 construct: Full-length human EB3 was subcloned into pEX-N-His vector; 6xHis (N, cleaved yes); made in house; host or cells: E. coli BL21(DE3)
T1 sequence (Q9UPY8 whole entry): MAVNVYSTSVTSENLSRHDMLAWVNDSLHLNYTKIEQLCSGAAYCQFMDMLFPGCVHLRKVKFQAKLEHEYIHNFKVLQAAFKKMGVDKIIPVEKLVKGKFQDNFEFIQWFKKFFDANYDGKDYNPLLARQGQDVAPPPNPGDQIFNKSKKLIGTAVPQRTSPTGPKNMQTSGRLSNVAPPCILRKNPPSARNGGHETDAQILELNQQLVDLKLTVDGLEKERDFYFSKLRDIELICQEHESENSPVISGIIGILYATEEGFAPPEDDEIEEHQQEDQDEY
Experimental: Column load, flow through, wash and elution fractions were further analyzed by polyacrylamide gel electrophoresis, followed by western analysis with EB3 antibodies. […] Column chromatography, elution and western blots were performed as above. The extract fractions (flow, wash and elution) were separated by electrophoresis followed by protein detection (FIG. 6).

NAPVSKIPQ (synthetic novel peptide core sequence SKIP derived from hybrid microtubule end-binding protein 3 (EB3)- binding microtubule plus-end tracking proteins (+TIPs) and activity-dependent neurotrophic factor (ADNF) active core site (NAP))
protection against cell death induced by zinc toxicity (MTS survival) [1]: provided protection against zinc toxicity; also recorded: significantly increased survival | protection against cell death induced by zinc toxicity (MTS survival) ([1]; listed as SKIP): significantly increased survival | derivative peptides effect on PSD-95 density vs vehicle controls (FIG. 10c) [2]: paralleled to NAPVSIPQ activity; also recorded: significantly increased | competition for EB3 binding to column-bound NAP [3]: no binding of EB3 to the column bound NAP
